Data reported in CN114573468A, “蛋白抑制剂及其应用” (priority 2022, dated 2022).

Tests used:
[1] = tested on: breast cancer 4T1.2-luc cells (乳腺癌4T1.2-luc细胞); experiment: Bioluminescence imaging in mouse breast cancer bone metastasis model; type: in vivo; conditions: 0.44mg/ml epirubicin alone, i.p., 5ml/kg, every 3 days
[2] = tested on: breast cancer 4T1.2-luc cells (乳腺癌4T1.2-luc细胞); experiment: HE staining of bone sections in mouse bone metastasis model; type: in vivo; conditions: 0.44mg/ml epirubicin alone; Fig. 7H
[3] = tested on: breast cancer 4T1.2-luc cells (乳腺癌4T1.2-luc细胞); experiment: X-ray CT of hind limb bones in mouse bone metastasis model; type: in vivo; conditions: 0.44mg/ml epirubicin alone, i.p.
osteoclasts (破骨细胞) = experiment: TRAP staining (osteoclasts) of bone sections in mouse bone metastasis model; type: in vivo; conditions: Fig. 7N
4T1.2 cells (4T1.2细胞) = experiment: Cell scratch (migration) assay, 4T1.2; type: cell-based, mouse; conditions: 4T1.2, scratch assay, concentration-dependent
[4] = target: T1, recombinant human legumain (重组人legumain蛋白(rhLegumain)) (Homo sapiens, UniProt Q99538); experiment: AEP activity assay with recombinant human legumain, substrate Z-AAN-AMC; type: biochemical; conditions: Fig. 2E
T1 construct: 30ng/μl活化的rhLegumain在测定缓冲液; purchased 2199-CY
T1 sequence (Q99538 18-323 limits assumed): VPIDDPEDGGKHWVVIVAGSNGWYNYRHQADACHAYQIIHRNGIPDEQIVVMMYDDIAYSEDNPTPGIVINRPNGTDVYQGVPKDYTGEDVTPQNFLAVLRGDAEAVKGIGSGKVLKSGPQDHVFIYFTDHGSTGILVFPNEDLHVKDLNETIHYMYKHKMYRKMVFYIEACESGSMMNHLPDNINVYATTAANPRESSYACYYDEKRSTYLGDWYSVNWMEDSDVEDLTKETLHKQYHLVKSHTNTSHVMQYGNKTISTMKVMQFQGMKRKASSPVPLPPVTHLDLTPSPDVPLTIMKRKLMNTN

[5] = tested on: breast cancer 4T1.2 cells (乳腺癌4T1.2细胞); experiment: Transwell Matrigel invasion assay, 4T1.2; type: cell-based, mouse; conditions: 4T1.2, Transwell Matrigel, 12h, concentration-dependent
E-cadherin = experiment: Immunoblot of E-cadherin expression in 4T1.2 cells (EMT); type: cell-based, mouse; conditions: 100nM and 1μM, 96h
[6] = target: T2, endogenous AEP of 293L cells (293L细胞, AEP的内源性酶活性) (Homo sapiens, UniProt Q99538); experiment: Endogenous AEP activity in cell lysate and medium of 293L cells; type: cell-based; conditions: 293L cells cultured with different doses of inhibitor
T2 construct: 验证抑制剂是否能有效抑制AEP的内源性酶活性; endogenous in cells; host or cells: 293L cells
T2 sequence (Q99538 18-433): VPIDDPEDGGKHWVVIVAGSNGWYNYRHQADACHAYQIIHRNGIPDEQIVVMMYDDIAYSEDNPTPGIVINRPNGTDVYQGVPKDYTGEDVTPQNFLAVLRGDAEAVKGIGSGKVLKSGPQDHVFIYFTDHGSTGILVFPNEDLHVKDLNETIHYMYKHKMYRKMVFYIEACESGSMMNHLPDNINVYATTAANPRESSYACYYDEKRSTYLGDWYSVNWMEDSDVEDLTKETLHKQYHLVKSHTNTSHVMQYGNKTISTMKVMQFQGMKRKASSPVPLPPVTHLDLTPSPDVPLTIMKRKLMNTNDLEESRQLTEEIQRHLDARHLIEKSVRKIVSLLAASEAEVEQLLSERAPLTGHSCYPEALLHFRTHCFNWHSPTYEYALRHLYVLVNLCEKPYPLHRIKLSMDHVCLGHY

[7] = tested on: human breast cancer cells MDA-MB-231 (人乳腺癌细胞MDA-MB-231)
[8] = tested on: AEP (breast cancer 4T1.2 cells, 乳腺癌4T1.2细胞); experiment: Immunoblot of AEP expression in 4T1.2 cells; type: cell-based, mouse; conditions: 1 μM, 96h, vs control (0nM), p<0.05
MMP-9 = experiment: Immunoblot of MMP-9 expression in 4T1.2 cells (EMT); type: cell-based, mouse; conditions: 100nM and 1μM, 96h
[9] = tested on: breast cancer 4T1.2 cells (乳腺癌4T1.2细胞); experiment: Survival of BALB/C mice with subcutaneous 4T1.2 tumors; type: in vivo, mouse; conditions: inhibitor given in combination with 0.44mg/ml epirubicin
[10] = tested on: breast cancer MDA-MB-231 cells (乳腺癌MDA-MB-231细胞); experiment: Cell scratch (migration) assay, MDA-MB-231; type: cell-based, human; conditions: MDA-MB-231, scratch assay, concentration-dependent
[11] = tested on: mouse highly metastatic breast cancer cells 4T1.2 (小鼠高转移性乳腺癌细胞4T1.2)
Snail = experiment: Immunoblot of Snail expression in 4T1.2 cells (EMT); type: cell-based, mouse; conditions: 100nM and 1μM, 96h

Row | Compound | bone tumor growth (bioluminescence) [1] | tumor cell invasion of bone tissue (HE staining) [2] | bone structure and bone erosion (X-ray CT) [3] | increase in osteoclast number in the epirubicin group compared with the 2 inhibitor-treated groups (osteoclasts (破骨细胞); 0.44mg/ml epirubicin alone) | cell migration ability (4T1.2 cells (4T1.2细胞)) | AEP enzyme activity over time ([4]; 100nM inhibitor vs control (0nM), p<0.05, pH5.0) | AEP enzyme activity over time ([4]; 1 μM inhibitor vs control (0nM), p<0.01, pH5.0) | number of invading cells [5] | E-cadherin expression (E-cadherin) | AEP enzyme activity in cell culture medium [6] | cell viability / growth compared with control [7] | decrease of AEP expression [8] [%] | MMP-9 expression (MMP-9) | increase in osteoclast number in the control group compared with the 2 inhibitor-treated groups (osteoclasts (破骨细胞); control (PBS) relative to groups given epirubicin + inhibitor) | survival of tumor mice [9] | cell migration ability [10] | cell viability / growth compared with control [11] | Snail expression (Snail)
1 | COc1cccc2c1C(=O)c1c(O)c3c(c(O)c1C2=O)C[C@@](O)(C(=O)CO)C[C@@H]3O[C@H]1C[C@H](N)[C@@H](O)[C@H](C)O1 [表柔比星] | 所有小鼠的胫骨近端、股骨或背侧脊柱都有肿瘤生长 | 肿瘤细胞突破了骨组织,呈现侵袭状 | 骨结构不完整,存在骨侵蚀 | 3.6 倍 (fold) |  |  |  |  |  |  |  |  |  |  |  |  |  | 
2 | CH2CH[N(CH2CH3)2]CON(COCH2Cl)CH2CONH2 [化合物①] |  |  |  |  | 减弱 | 显著抑制 | 显著抑制 | 减少各细胞的侵袭细胞数目 | 表达上调 | 能够以剂量依赖性方式抑制 | 与对照组相差很小 | 82.31 | 表达下调 | 4 倍 (fold) | 明显延长 | 减弱 | 与对照组相差很小 | 表达下调
